Measurements as given in US4299767A, “Benzodiazepine derivatives” (Hoffmann-La Roche Inc., priority 1978, dated 1981).

Assays:
[1] = test system: intestinal resorption of cholesterol; assay: inhibition of the intestinal resorption of cholesterol (cholesterol recovery, CHOREC); type: in vivo, normal female Fullinsdorf albino rats; conditions: rats
Description: The compounds to be tested are administered to groups of 6 normal female Fullinsdorf albino rats (body weight about 70 g) by oral intubation. This is followed immediately by oral intubation of a test meal containing radioactive cholesterol. Consecutively, feces are collected for three days, freeze dried and pulverized. An aliquot is burned for evaluation of fecal radioactivity. Controls excrete about 40-50% of the dietary radioactive cholesterol called cholesterol recovery (CHOREC) and arbitrarily set 100%. Animals treated with a substance inhibiting the intestinal resorption of cholesterol show a higher excretion of radioactive cholesterol in comparison with controls. The cholesterol recovery (CHOREC) of treated animals is expressed in % of controls.
(§1) The following Table contains results obtained with the aforementioned particularly preferred compounds inhibiting the intestinal resorption of cholesterol. For each of these compounds there are given the dose(s) administered (in μMol/kg p.o) as well as the cholesterol recovery (CHOREC), expressed in % of controls. Moreover, the Table contains data relating to the acute toxicity of the compounds investigated (LD 50 in mg/kg in the case of a single oral administration to rats): […]

[2] = acute toxicity, single oral administration to rats; conditions: rat, in vivo, p.o.
Text: as §1

CC1N=C(c2ccccc2Cl)c2c(ccc(NC(=O)NCCO)c2Cl)N(C)C1=O (racemic) [Example 49, rac-1-[6-chloro-5-(o-chlorophenyl)-2,3-dihydro-1,3-dimethyl-2-oxo-1H-1,4-benzodiazepin-7-yl]-3-(2-hydroxyethyl)urea]
cholesterol recovery (CHOREC), in % of controls ([1]; 1000 μMol/kg p.o.): 188% | LD50 [2]: > 5000 mg/kg

CC1N=C(c2ccccc2Cl)c2c(ccc(NC(=O)NCCO)c2Br)N(C)C1=O (racemic) [Example 48, rac-1-[6-bromo-5-(o-chlorophenyl)-2,3-dihydro-1,3-dimethyl-2-oxo-2H-1,4-benzodiazepin-7-yl]-3-(2-hydroxyethyl)urea]
cholesterol recovery (CHOREC), in % of controls ([1]; 10 μMol/kg p.o.): 150% | cholesterol recovery (CHOREC), in % of controls ([1]; 30 μMol/kg p.o.): 157% | cholesterol recovery (CHOREC), in % of controls ([1]; 100 μMol/kg p.o.): 168% | cholesterol recovery (CHOREC), in % of controls ([1]; 1000 μMol/kg p.o.): 187% | LD50 [2]: > 5000 mg/kg
